Data: US6673749B1, “Use of phyllocladane diterpenoids for plant growth promotion and alleviation of growth retardant allelochemicals, and method therefor” (Council of Scientific and Industrial Research, priority 2002, dated 2004)

How the values were obtained:
Assay in all cases: Seed germination and seedling shoot/root growth test in petridishes
Assay type in all cases: in vivo
Triticum aestivum = details: control = 100%
Procedure: (§1) As noted above the activity of phyllocladane diterpenoids used in the practice of this invention was observed when these compounds were tested for their effects on seed germination, root and shoot growth of certain plant species and their antagonistic effect on plant growth retardants by the method described by Bagchi G. D. et al Phytochemistry, 45(6)1131-1133, 1997.
(§2) Plant growth promoting activity of calliterpenone, calliterpenone monoacetate, and calliterpenone di-acetate was examined at 0.1, 0.01 and 0.001 μM concentrations. The tests were conducted against seeds of two monocotyledonous (Hordeum vulgare and Triticum aestivum) and two dicotyledonous plants (Vigna radiata and Trigonella foenum-graecum). Control seeds were germinated in distilled water and all the observations were compared with […]. The root and shoot growth of all the plant species were affected by the phyllocladane diterpenoids, although the extent of effect varied considerably in the plant species with the chemicals and their concentrations. […] Details of the procedure adopted and results obtained are discussed in the various examples.
(§3) 100 ml stalk solutions of 0.1 μM concentration were prepared by dissolving required amounts of various test compounds (depending upon their molecular weights) in minimum amount of ethanol or acetone and adding distilled water. From this stalk solution, 0.01 μM and 0.001 μM concentrations were prepared. Calliterpenone and calliterpenone di acetate was dissolved in 2.0 ml absolute ethanol (Merc), while; calliterpenone monoacetate, isopropylideno calliterpenone and trihydroxy calliterpenone were dissolved in 2.0 ml spectral grade acetone (Ranbaxy). The respective control test solutions of distilled water of each concentration also contained equal amount of absolute ethanol or acetone. For an assay, 10 seeds were placed on Whatman filter paper (moistened with 5.0 ml of test solution in a 9.0 cm diameter petridish (in triplicate). The pteridishes were incubated for 9 days in a germinator, maintained at 25.0±1.0° C. with 90% humidity and 4 hr light/day. At the end of incubation, observations were recorded on the seedlings in terms of germination, shoot and root growth. The data on the length of shoot and root of seedlings and number of seeds germinated in different concentrations of compounds were compared with the control, which was taken as 100%. The data thus obtained were presented in Table-1.
(§4) Root growth of seedlings was measured in the similar way as shoot growth from the experiment as described in Example 1.
(§5) Effect of test compounds on germination was observed from the same experiment as described in Example 1.

Hordeum vulgare = details: control = 100%
Procedure: as §1, §2, §3, §4, §5

Vigna radiata = details: Vigna radiata, control = 100%
Procedure: as §1, §2, §3, §4, §5

[1] = system: Trigonella foenum-graecum; details: for Percent (%) germination of seeds in relation to control on 9th day after sowing / Percent (%) root growth of seedlings in relation to control on 9th day after sowing / Percent (%) shoot growth of seedlings in relation to control on 9th day after sowing: Trigonella foenum graecum, control = 100%
Procedure: as §1, §2, §3, §4, §5

With `CC1(C)C(O)CCC2(C)C3CCC4CC3(CCC12)CC4(O)CO` (stereo not drawn) [Trihydroxy Phyllocladane, 30β, 16α, 17. trihydroxy phyllocladane] the “Percent (%) germination of seeds in relation to control on 9th day after sowing” value (“Percent (%) germination of seeds” below) (Triticum aestivum; 0.001 μM) was 100%, the “Percent (%) root growth of seedlings in relation to control on 9th day after sowing” value (from here on “Percent (%) root growth of seedlings”) (Triticum aestivum; 0.001 μM) was 90% and the “Percent (%) shoot growth of seedlings in relation to control on 9th day after sowing” value (shortened to “Percent (%) shoot growth of seedlings”) (Triticum aestivum; 0.001 μM) was 108%. For the same compound, the “Percent (%) germination of seeds” value (Triticum aestivum; 0.01 μM) was 100%, the “Percent (%) root growth of seedlings” value (Triticum aestivum; 0.01 μM) was 113% and the “Percent (%) shoot growth of seedlings” value (Triticum aestivum; 0.01 μM) was 112%. The “Percent (%) germination of seeds” value (Triticum aestivum; 0.1 μM) was 100%, the “Percent (%) root growth of seedlings” value (Triticum aestivum; 0.1 μM) was 111% and the “Percent (%) shoot growth of seedlings” value (Triticum aestivum; 0.1 μM) was 116%. For the same compound, the “Percent (%) germination of seeds” value (Hordeum vulgare; 0.001 μM) was 100%, the “Percent (%) root growth of seedlings” value (Hordeum vulgare; 0.001 μM) was 145% and the “Percent (%) shoot growth of seedlings” value (Hordeum vulgare; 0.001 μM) was 102%. For the same compound, the “Percent (%) germination of seeds” value (Hordeum vulgare; 0.01 μM) was 100%, the “Percent (%) root growth of seedlings” value (Hordeum vulgare; 0.01 μM) was 112% and the “Percent (%) shoot growth of seedlings” value (Hordeum vulgare; 0.01 μM) was 108%. For the same compound, the “Percent (%) germination of seeds” value (Hordeum vulgare; 0.1 μM) was 100%, the “Percent (%) root growth of seedlings” value (Hordeum vulgare; 0.1 μM) was 106% and the “Percent (%) shoot growth of seedlings” value (Hordeum vulgare; 0.1 μM) was 109%. The “Percent (%) germination of seeds” value (Vigna radiata; 0.001 μM) was 100%, the “Percent (%) root growth of seedlings” value (Vigna radiata; 0.001 μM) was 100% and the “Percent (%) shoot growth of seedlings” value (Vigna radiata; 0.001 μM) was 136%. The “Percent (%) germination of seeds” value (Vigna radiata; 0.01 μM) was 150%, the “Percent (%) root growth of seedlings” value (Vigna radiata; 0.01 μM) was 102% and the “Percent (%) shoot growth of seedlings” value (Vigna radiata; 0.01 μM) was 145%. The “Percent (%) germination of seeds” value (Vigna radiata; 0.1 μM) was 150%, the “Percent (%) root growth of seedlings” value (Vigna radiata; 0.1 μM) was 93% and the “Percent (%) shoot growth of seedlings” value (Vigna radiata; 0.1 μM) was 132%. For the same compound, the “Effect on shoots (in words)” value ([1]; T. foenum-graecum, all dilutions tested) was “proved toxic”, the “Percent (%) germination of seeds” value ([1]; 0.001 μM) was 63% and the “Percent (%) root growth of seedlings” value ([1]; 0.001 μM) was 55%. The “Percent (%) shoot growth of seedlings” value ([1]; 0.001 μM) was 53%, the “Percent (%) germination of seeds” value ([1]; 0.01 μM) was 75% and the “Percent (%) root growth of seedlings” value ([1]; 0.01 μM) was 68%. For the same compound, the “Percent (%) shoot growth of seedlings” value ([1]; 0.01 μM) was 72%, the “Percent (%) germination of seeds” value ([1]; 0.1 μM) was 88% and the “Percent (%) root growth of seedlings” value ([1]; 0.1 μM) was 82%. For the same compound, the “Percent (%) shoot growth of seedlings” value ([1]; 0.1 μM) was 84%.
